Patent US6420367B1, “Pyrimidine derivatives exhibiting antitumor activity” (Shionogo & Co., Ltd., priority 1998, dated 2002)
≈ marks a conversion by molar mass, not a printed value. One block for each compound: values may come before it.

Assays:
[1] = tested on: DT-R cells (pRRE3-luc-transfected v-ki-ras-transformed NIH3T3 cells); signal derived from Ras oncogene products; assay: Inhibitory effect against cellular signaling derived from Ras oncogene products: luciferase reporter, dissociation of DT-R from DT-C activity (MAC); format: cell-based, mouse; conditions: minimal tested concentration at which luciferase activities of DT-C cells and DT-R cells dissociated
Excerpt: Test Example 1 Inhibitory Effect Against Cellular Signaling Derived From Ras Oncogene Products
1) Establishment of Cell Lines Used in Assay
Based on the reporter plasmid (pGV-P (Toyo Ink, Japan)), in which luciferase gene was ligated to SV40-derived minimal promoter, we constructed a plasmid designated pRRE3-luc by inserting 3 copies of chemically synthesized oligonucleotides (Sequence: CAGGATATGACTCT, derived from mouse NVL-3 (M. A. Reddy et al.(1992)Mol. Endocrinol., 6, 1051)) into upstream of the promoter. v-ki-ras-transformed NIH3T3 cells (DT cells, provided by Dr. Makoto Noda (Kyoto Univ., School of medicine)) were transfected with this plasmid by liposome-mediated transfection and transfected cell lines stably incorporated and maintained each plasmid were obtained. We named pGV-P and pRRE3-transfected cell line as DT-C and DT-R, respectively and used in the assay described below.
2) Preparation of Samples
i) All the cell lines were cultured in Dulbecco's Modified Essential Medium (DMEM: 10% Fetal Calf Serum(FCS: Hyclone, USA)) including […] kanamycin (Meiji Seika, Japan) in humidified incubator under condition of 5% CO2 at 37° C.
ii) DT-C and DT-R cells were seeded at 2500 cells/well into flat-bottom 96 well multiplate (Sumitomo bakelite) and incubated for 24 hours.
iii) Test compounds were prepared as 1 mg/ml DMSO solution.
iv) The solution of test compounds were added to the culture. Tested compounds are used at the concentration from […] to 0.51 ng/ml with by 3-fold dilution.
v) After 24 hours, the culture supernatant was completely aspirated and […] of cell-lysing solution (PGC-50 (Toyo Ink, Japan)) was added before cells were dried up. In order to the cells were lysed completely, multiwell plates were left at room temperature for 10 to 30 min. The plates were wrapped up and stored at −20° C. till the day of measurement.
3) Measurement of Samples
i) Melt the samples by putting 96 well multiplate at 37° C. and add 90 μl/well 25 mM Tris (pH 7.5).
ii) Transfer 50 μl of the sample (110 μl) to the 96 well microplate for measurement (Microlite 1 (Dynatech)).
iii) Measure the samples by the luminometer, LUMINOUS CT9000D (Dia-Yatron, Japan). We used Pickagene luminescence kit PGL2000 or LT2.0 (Toyo Ink, Japan) as substrates for luminescence measurement (50 μl/well).
4) Judgment of the Results
i) The luciferase activity of DT-C cells and DT-R cells were plotted in the graph where the relative activity and the compound concentration were expressed as Y-axis and X-axis, respectively. We judged by the degree of dissociation between the activities of DT-C cells and DT-R cells as an index.
ii) Concretely, efficacy of the compound was expressed by two values described below.
a) Among the points of concentration tested, the minimal concentration (Minimal Active Concentration: MAC), at which the activities of DT-C cells and DT-R cells dissociated, was shown as an index of efficacy of the compound.

human colon cancer HT29 = assay: In vitro cell growth inhibition test, MTT assay; format: cell-based; conditions: MTT assay 4 days after compound addition
Excerpt: (§1) Test Example 2 In Vitro Cell Growth Inhibition Test Cells and MTT Assay
(§2) Human squamous lung cancer […], human squamous lung cancer Ma44, human lung adenocarcinoma A549, human colon cancer HT29 and human pancreas cancer PANC-1 were used.

[2] = tested on: human lung adenocarcinoma A549; assay: In vitro cell growth inhibition test, MTT assay; format: cell-based; conditions: MTT assay 4 days after compound addition
Excerpt: as §1, §2

[3] = tested on: human pancreas cancer PANC-1; assay: In vitro cell growth inhibition test, MTT assay; format: cell-based; conditions: MTT assay 4 days after compound addition
Excerpt: as §1, §2

[4] = tested on: human squamous lung cancer Ma44; assay: In vitro cell growth inhibition test, MTT assay; format: cell-based; conditions: MTT assay 4 days after compound addition
Excerpt: as §1, §2

[5] = tested on: human squamous lung cancer RERF-RC-AI; assay: In vitro cell growth inhibition test, MTT assay; format: cell-based; conditions: MTT assay 4 days after compound addition
Excerpt: as §1, §2

IC50, HT29 (human colon cancer HT29): 6 ng/mL (≈ 0.0136 µM) | IC50, A549 [2]: 31 ng/mL (≈ 0.0701 µM) | IC50, PANC-1 [3]: 14 ng/mL (≈ 0.0316 µM) | IC50, Ma44 [4]: 14 ng/mL (≈ 0.0316 µM) | IC50, RERF-LC-AI [5]: 8 ng/mL (≈ 0.0181 µM)
Compound: CCNC(=Nc1nc(C)ncc1CSc1nnc(-c2ccc([N+](=O)[O-])cc2)o1)NCC [Compound A-82]
MAC (Minimal Active Concentration) [1]: <0.000508 µg/mL

IC50, HT29 (human colon cancer HT29): 93 ng/mL (≈ 0.218 µM) | IC50, A549 [2]: 720 ng/mL (≈ 1.69 µM) | IC50, PANC-1 [3]: 180 ng/mL (≈ 0.422 µM) | IC50, Ma44 [4]: 310 ng/mL (≈ 0.727 µM) | IC50, RERF-LC-AI [5]: 77 ng/mL (≈ 0.181 µM)
Compound: CCNC(=Nc1nc(C)ncc1CSc1nnc(-c2ccc(N)c(C)c2)o1)NCC [Compound A-71]
MAC (Minimal Active Concentration) [1]: 1.11 µg/mL

IC50, HT29 (human colon cancer HT29): 6.4 ng/mL (≈ 0.0154 µM) | IC50, A549 [2]: 13 ng/mL (≈ 0.0314 µM) | IC50, PANC-1 [3]: 4.1 ng/mL (≈ 0.00989 µM) | IC50, Ma44 [4]: 6.2 ng/mL (≈ 0.015 µM) | IC50, RERF-LC-AI [5]: 2.9 ng/mL (≈ 0.007 µM)
Compound: CCNC(N)=Nc1nc(C)ncc1CSc1nnc(-c2ccc([N+](=O)[O-])cc2)o1 [Compound A-185]
MAC (Minimal Active Concentration) [1]: 0.0137 µg/mL

IC50, HT29 (human colon cancer HT29): 36 ng/mL (≈ 0.0906 µM) | IC50, A549 [2]: 65 ng/mL (≈ 0.164 µM) | IC50, PANC-1 [3]: 52 ng/mL (≈ 0.131 µM) | IC50, Ma44 [4]: 55 ng/mL (≈ 0.138 µM)
Compound: CCNC(=Nc1nc(C)ncc1CSc1nnc(-c2ccccc2)o1)NCC [Compound A-107]
MAC (Minimal Active Concentration) [1]: 0.370 µg/mL

IC50, HT29 (human colon cancer HT29): 2 ng/mL (≈ 0.00442 µM) | IC50, A549 [2]: 3.9 ng/mL (≈ 0.00862 µM) | IC50, PANC-1 [3]: 2.6 ng/mL (≈ 0.00575 µM) | IC50, Ma44 [4]: 2.1 ng/mL (≈ 0.00464 µM) | IC50, RERF-LC-AI [5]: 1.3 ng/mL (≈ 0.00287 µM)
Compound: C#CCNC(=Nc1nc(C)ncc1CSc1nnc(-c2ccc([N+](=O)[O-])cc2)o1)NCC [Compound A-183]
MAC (Minimal Active Concentration) [1]: 0.00457 µg/mL

IC50, HT29 (human colon cancer HT29): 13 ng/mL (≈ 0.0285 µM) | IC50, A549 [2]: 49 ng/mL (≈ 0.107 µM) | IC50, PANC-1 [3]: 25 ng/mL (≈ 0.0548 µM) | IC50, Ma44 [4]: 26 ng/mL (≈ 0.057 µM) | IC50, RERF-LC-AI [5]: 16 ng/mL (≈ 0.035 µM)
Compound: CCNC(=Nc1nc(C)ncc1CSc1nnc(-c2ccc([N+](=O)[O-])cc2)o1)NC(C)C [Compound A-134]
MAC (Minimal Active Concentration) [1]: 0.0137 µg/mL

IC50, HT29 (human colon cancer HT29): 38 ng/mL (≈ 0.0857 µM) | IC50, A549 [2]: 6.1 ng/mL (≈ 0.0138 µM) | IC50, PANC-1 [3]: 120 ng/mL (≈ 0.271 µM) | IC50, Ma44 [4]: 740 ng/mL (≈ 1.67 µM) | IC50, RERF-LC-AI [5]: 62 ng/mL (≈ 0.14 µM)
Compound: CCNC(=Nc1nc(C)ncc1CSc1nnc(-c2ccc([N+](=O)[O-])cn2)o1)NCC [Compound D-45]
MAC (Minimal Active Concentration) [1]: 1.11 µg/mL

More lines, now with the values behind:

Compound: CCCNC(=Nc1nc(C)ncc1CSc1nnc(-c2ccc(N)cc2)o1)NCC [Compound A-167]
MAC (Minimal Active Concentration) [1]: 0.0137 µg/mL | IC50, HT29 (human colon cancer HT29): 6.1 ng/mL (≈ 0.0143 µM) | IC50, A549 [2]: 12 ng/mL (≈ 0.0281 µM) | IC50, PANC-1 [3]: 6 ng/mL (≈ 0.0141 µM) | IC50, Ma44 [4]: 25 ng/mL (≈ 0.0586 µM) | IC50, RERF-LC-AI [5]: 3.2 ng/mL (≈ 0.0075 µM)

Compound: CCCCNC(=Nc1nc(C)ncc1CSc1nnc(-c2ccc(N)cc2)o1)NCC [Compound A-180]
MAC (Minimal Active Concentration) [1]: 0.00457 µg/mL | IC50, HT29 (human colon cancer HT29): 12 ng/mL (≈ 0.0272 µM) | IC50, A549 [2]: 14 ng/mL (≈ 0.0318 µM) | IC50, PANC-1 [3]: 8.1 ng/mL (≈ 0.0184 µM) | IC50, Ma44 [4]: 16 ng/mL (≈ 0.0363 µM) | IC50, RERF-LC-AI [5]: 8 ng/mL (≈ 0.0182 µM)

Compound: CNC(=Nc1nc(C)ncc1CSc1nnc(-c2ccc(N)cc2)o1)NC(C)C [Compound A-171]
MAC (Minimal Active Concentration) [1]: 0.0137 µg/mL | IC50, HT29 (human colon cancer HT29): 6.4 ng/mL (≈ 0.0155 µM) | IC50, A549 [2]: 12 ng/mL (≈ 0.0291 µM) | IC50, PANC-1 [3]: 6 ng/mL (≈ 0.0145 µM) | IC50, Ma44 [4]: 13 ng/mL (≈ 0.0315 µM) | IC50, RERF-LC-AI [5]: 4 ng/mL (≈ 0.0097 µM)

Compound: CCNC(=Nc1ncncc1CSc1nnc(-c2ccccc2NC(C)=O)o1)NCC [Compound A-57]
MAC (Minimal Active Concentration) [1]: 0.0137 µg/mL | IC50, A549 [2]: 14 ng/mL (≈ 0.0318 µM) | IC50, PANC-1 [3]: 8.8 ng/mL (≈ 0.02 µM) | IC50, Ma44 [4]: 25 ng/mL (≈ 0.0567 µM)

Compound: CCCNC(=Nc1nc(C)ncc1CSc1nnc(-c2ccc(N)cc2)o1)NC [Compound A-148]
MAC (Minimal Active Concentration) [1]: 0.123 µg/mL | IC50, HT29 (human colon cancer HT29): 16 ng/mL (≈ 0.0388 µM) | IC50, A549 [2]: 490 ng/mL (≈ 1.19 µM) | IC50, PANC-1 [3]: 15 ng/mL (≈ 0.0364 µM) | IC50, Ma44 [4]: 86 ng/mL (≈ 0.208 µM) | IC50, RERF-LC-AI [5]: 11 ng/mL (≈ 0.0267 µM)
